Data: ChEMBL document CHEMBL4513153, “CO-ADD screening of University of Northwestern St. Paul (MN, USA) compounds”

Legend:
Escherichia coli = test: microbe, parasite or virus in culture; details: ATCC 25922, 18 h, ASSAY_TEST Inhibition of Bacterial Growth, detection method Absorption (OD600), MEDIA CAMHB, plate type 384well, NBS, CORNING #3640
Description: Antibacterial activity against Escherichia coli ATCC 25922 (CO-ADD:GN_001); MIC in CAMBH media using NBS plates, by OD(600)

Staphylococcus aureus = test: microbe, parasite or virus in culture; details: ATCC 43300, 18 h, ASSAY_TEST Inhibition of Bacterial Growth, detection method Absorption (OD600), MEDIA CAMHB, plate type 384well, NBS, CORNING #3640
Description: Antibacterial activity against Staphylococcus aureus MRSA ATCC 43300 (CO-ADD:GP_020); MIC in CAMBH media, using NBS plates, by OD(600)

Candida albicans = test: microbe, parasite or virus in culture; details: ATCC 90028, ASSAY_TEST Inhibition of Fungal Growth, detection method Absorption (OD530), plate type 384well, NBS, CORNING #3640
Description: Antifungal activity against Candida albicans ATCC 90028 (CO-ADD:FG_001); MIC in YNB media using NBS plates, by OD630

Acinetobacter baumannii = test: microbe, parasite or virus in culture; details: ATCC 19606, 18 h, ASSAY_TEST Inhibition of Bacterial Growth, detection method Absorption (OD600), MEDIA CAMHB, plate type 384well, NBS, CORNING #3640
Description: Antibacterial activity against Acinetobacter baumannii ATCC 19606 (CO-ADD:GN_034); MIC in CAMBH media using NBS plates, by OD600

Pseudomonas aeruginosa = test: microbe, parasite or virus in culture; details: ATCC 27853, 18 h, ASSAY_TEST Inhibition of Bacterial Growth, detection method Absorption (OD600), MEDIA CAMHB, plate type 384well, NBS, CORNING #3640
Description: Antibacterial activity against Pseudomonas aeruginosa ATCC 27853 (CO-ADD:GN_042); MIC in CAMBH media using NBS plates, by OD(600)

Klebsiella pneumoniae = test: microbe, parasite or virus in culture; details: ATCC 700603, 18 h, ASSAY_TEST Inhibition of Bacterial Growth, detection method Absorption (OD600), MEDIA CAMHB, plate type 384well, NBS, CORNING #3640
Description: Antibacterial activity against Klebsiella pneumoniae MDR ATCC 70063 (CO-ADD:GN_003); MIC in CAMBH media using NBS plates, by OD(600)

HEK293 = test: cells; format: functional; details: Homo sapiens, ATCC CRL1573, HEK293; ASSAY_TEST Inhibition of Cell Viability; detection method Resazurin; Fluorescence (ex560/em590); MEDIA DMEM with 10% FBS; plate type 384well; TC; CORNING #3712; time 18 hr

Description for Cryptococcus neoformans: Antifungal activity against Cryptococcus neoformans H99 ATCC 208821 (CO-ADD:FG_002); MIC in YNB media using NBS plates, by Resazurin OD(600-570)

SMILES	MIC (Escherichia coli)	MIC (Staphylococcus aureus)	MIC (Candida albicans)	MIC (Acinetobacter baumannii)	MIC (Pseudomonas aeruginosa)	MIC (Cryptococcus neoformans)	MIC (Klebsiella pneumoniae)	CC50 (HEK293)
Cl.N=C(N)Nc1nc(-c2c[nH]c3ccccc23)cs1	> 32 µg/mL	> 32 µg/mL	> 32 µg/mL	> 32 µg/mL	> 32 µg/mL	16 µg/mL	> 32 µg/mL	9.6 µg/mL
NC(N)=Nc1nc(-c2csc3ccccc23)cs1	> 32 µg/mL	> 32 µg/mL	> 32 µg/mL	> 32 µg/mL	> 32 µg/mL	> 32 µg/mL	> 32 µg/mL	> 32 µg/mL
